Reference: the supplement of paper PMC11451515

System: NOMO1
Test: cell viability relative to DMSO control; higher = less cytotoxic
Conditions: 48 h
In short: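 Library compounds in DMSO were pin-dosed into 1536-well plates (5 μl) holding NOMO1 or SEM (500 cells/well) or P12-Ichikawa (1000 cells/well) leukemia cells, across an 11-point threefold series of 47 μM to 0.79 nM. Each cell line had been adapted for at least four passages in each medium. CellTiter-Glo One luminescence was read after 48 h at 37°C. Viability is the per-plate percentage relative to DMSO wells, with cell-free wells as background.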

[1] = HPLM + 10% dialyzed FBS, 0.000781 µM
[2] = HPLM + 10% dialyzed FBS, 0.00234 µM
[3] = HPLM + 10% dialyzed FBS, 0.00702 µM
[4] = HPLM + 10% dialyzed FBS, 0.0211 µM
[5] = HPLM + 10% dialyzed FBS, 0.0632 µM
[6] = HPLM + 10% dialyzed FBS, 0.19 µM
[7] = HPLM + 10% dialyzed FBS, 0.569 µM
[8] = HPLM + 10% dialyzed FBS, 1.71 µM
[9] = HPLM + 10% dialyzed FBS, 5.12 µM
[10] = HPLM + 10% dialyzed FBS, 15.4 µM
[11] = HPLM + 10% dialyzed FBS, 46.1 µM
[12] = RPMI 5 mM glucose + 10% FBS, 0.000781 µM
[13] = RPMI 5 mM glucose + 10% FBS, 0.00234 µM
[14] = RPMI 5 mM glucose + 10% FBS, 0.00702 µM
[15] = RPMI 5 mM glucose + 10% FBS, 0.0211 µM
[16] = RPMI 5 mM glucose + 10% FBS, 0.0632 µM
[17] = RPMI 5 mM glucose + 10% FBS, 0.19 µM
[18] = RPMI 5 mM glucose + 10% FBS, 0.569 µM
[19] = RPMI 5 mM glucose + 10% FBS, 1.71 µM
[20] = RPMI 5 mM glucose + 10% FBS, 5.12 µM
[21] = RPMI 5 mM glucose + 10% FBS, 15.4 µM
[22] = RPMI 5 mM glucose + 10% FBS, 46.1 µM
[23] = RPMI 5 mM glucose + 10% dialyzed FBS, 0.000781 µM
[24] = RPMI 5 mM glucose + 10% dialyzed FBS, 0.00234 µM
[25] = RPMI 5 mM glucose + 10% dialyzed FBS, 0.00702 µM
[26] = RPMI 5 mM glucose + 10% dialyzed FBS, 0.0211 µM
[27] = RPMI 5 mM glucose + 10% dialyzed FBS, 0.0632 µM
[28] = RPMI 5 mM glucose + 10% dialyzed FBS, 0.19 µM
[29] = RPMI 5 mM glucose + 10% dialyzed FBS, 0.569 µM
[30] = RPMI 5 mM glucose + 10% dialyzed FBS, 1.71 µM
[31] = RPMI 5 mM glucose + 10% dialyzed FBS, 5.12 µM
[32] = RPMI 5 mM glucose + 10% dialyzed FBS, 15.4 µM
[33] = RPMI 5 mM glucose + 10% dialyzed FBS, 46.1 µM

`Cn1c(=O)c2c(ncn2C)n(C)c1=O.O=C(O)CC(O)(CC(=O)O)C(=O)O` was tested, and the cell viability [1] was 118%, the cell viability [2] was 106% and the cell viability [3] was 123%. The cell viability [4] was 133%, the cell viability [5] was 105% and the cell viability [6] was 114%. It also gave a cell viability [7] of 100%, a cell viability [8] of 104% and a cell viability [9] of 98.9%. The cell viability [10] was 86%, the cell viability [11] was 109% and the cell viability [12] was 95.4%. It also gave a cell viability [13] of 98.9%, a cell viability [14] of 107% and a cell viability [15] of 101%. It also gave a cell viability [16] of 115%, a cell viability [17] of 104% and a cell viability [18] of 106%. For the same compound, the cell viability [19] was 106%, the cell viability [20] was 101% and the cell viability [21] was 91.2%. For the same compound, the cell viability [22] was 93.8%, the cell viability [23] was 93.8% and the cell viability [24] was 113%. For the same compound, the cell viability [25] was 109%, the cell viability [26] was 106% and the cell viability [27] was 114%. The cell viability [28] was 107%, the cell viability [29] was 119% and the cell viability [30] was 98.6%. The cell viability [31] was 97.3%, the cell viability [32] was 89.2% and the cell viability [33] was 85.4%.

`C#Cc1cccc(Nc2ncnc3cc(OCCOC)c(OCCOC)cc23)c1` showed a cell viability [1] of 94.2%, a cell viability [2] of 104% and a cell viability [3] of 101%. The cell viability [4] was 83.7%, the cell viability [5] was 108% and the cell viability [6] was 86%. For the same compound, the cell viability [7] was 90.9%, the cell viability [8] was 110% and the cell viability [9] was 79.3%. For the same compound, the cell viability [10] was 75.3%, the cell viability [11] was 45.7% and the cell viability [12] was 85.4%. The cell viability [13] was 96.9%, the cell viability [14] was 102% and the cell viability [15] was 102%. The cell viability [16] was 93.2%, the cell viability [17] was 91.8% and the cell viability [18] was 95%. The cell viability [19] was 93.7%, the cell viability [20] was 89.7% and the cell viability [21] was 85.1%. The cell viability [22] was 70.7%, the cell viability [23] was 92.2% and the cell viability [24] was 85.5%. The cell viability [25] was 88.9%, the cell viability [26] was 83.4% and the cell viability [27] was 86.6%. For the same compound, the cell viability [28] was 83.8%, the cell viability [29] was 85.4% and the cell viability [30] was 89%. It also gave a cell viability [31] of 77.6%, a cell viability [32] of 84% and a cell viability [33] of 50.2%.

`CCCc1nc(C(C)(C)O)c(C(=O)O)n1Cc1ccc(-c2ccccc2-c2nn[nH]n2)cc1` gave a cell viability [1] of 97.7%, a cell viability [2] of 111% and a cell viability [3] of 107%. It also gave a cell viability [4] of 114%, a cell viability [5] of 119% and a cell viability [6] of 120%. It also gave a cell viability [7] of 149%, a cell viability [8] of 115% and a cell viability [9] of 113%. The cell viability [10] was 119%, the cell viability [11] was 126% and the cell viability [12] was 107%. The cell viability [13] was 103%, the cell viability [14] was 105% and the cell viability [15] was 110%. The cell viability [16] was 105%, the cell viability [17] was 125% and the cell viability [18] was 123%. It also gave a cell viability [19] of 113%, a cell viability [20] of 112% and a cell viability [21] of 114%. The cell viability [22] was 124%, the cell viability [23] was 106% and the cell viability [24] was 104%. It also gave a cell viability [25] of 115%, a cell viability [26] of 116% and a cell viability [27] of 114%. It also gave a cell viability [28] of 117%, a cell viability [29] of 124% and a cell viability [30] of 113%. The cell viability [31] was 128%, the cell viability [32] was 126% and the cell viability [33] was 112%.

With `CC1CCC(C(=O)N(c2cc(C#CC(C)(C)C)sc2C(=O)O)C2CCC(O)CC2)CC1` (stereo unspecified) the cell viability [1] was 108%, the cell viability [2] was 98.7% and the cell viability [3] was 111%. It also gave a cell viability [4] of 113%, a cell viability [5] of 96% and a cell viability [6] of 92.9%. It also gave a cell viability [7] of 98.7%, a cell viability [8] of 85% and a cell viability [9] of 78.9%. For the same compound, the cell viability [10] was 50.1%, the cell viability [11] was 53.5% and the cell viability [12] was 87.2%. It also gave a cell viability [13] of 98.8%, a cell viability [14] of 91.5% and a cell viability [15] of 90.9%. For the same compound, the cell viability [16] was 85%, the cell viability [17] was 87.9% and the cell viability [18] was 88.6%. The cell viability [19] was 87.7%, the cell viability [20] was 78.1% and the cell viability [21] was 75.1%. The cell viability [22] was 59.8%, the cell viability [23] was 97.5% and the cell viability [24] was 97.1%. The cell viability [25] was 89.7%, the cell viability [26] was 98.3% and the cell viability [27] was 96.5%. It also gave a cell viability [28] of 86.3%, a cell viability [29] of 93.2% and a cell viability [30] of 81.7%. For the same compound, the cell viability [31] was 79.9%, the cell viability [32] was 65.2% and the cell viability [33] was 46.1%.

With `c1cncc(CN2CCC(n3ncc4c(N5CCOCC5)nc(-c5ccc6[nH]ccc6c5)nc43)CC2)c1` the cell viability [1] was 92.1%, the cell viability [2] was 107% and the cell viability [3] was 92.5%. The cell viability [4] was 94.8%, the cell viability [5] was 84.4% and the cell viability [6] was 89.1%. It also gave a cell viability [7] of 78.6%, a cell viability [8] of 72.7% and a cell viability [9] of 60.1%. The cell viability [10] was 44%, the cell viability [11] was 35% and the cell viability [12] was 88.4%. For the same compound, the cell viability [13] was 80.4%, the cell viability [14] was 88.1% and the cell viability [15] was 92.7%. It also gave a cell viability [16] of 87.8%, a cell viability [17] of 82.2% and a cell viability [18] of 83.6%. The cell viability [19] was 82.8%, the cell viability [20] was 80.5% and the cell viability [21] was 49.3%. The cell viability [22] was 15.7%, the cell viability [23] was 87.3% and the cell viability [24] was 83.9%. It also gave a cell viability [25] of 96.4%, a cell viability [26] of 97.7% and a cell viability [27] of 86.2%. It also gave a cell viability [28] of 85.2%, a cell viability [29] of 69.2% and a cell viability [30] of 70.4%. The cell viability [31] was 71.2%, the cell viability [32] was 46.6% and the cell viability [33] was 20%.

Work on `CC[C@H](CC[C@@H](C)[C@H]1CC[C@H]2[C@@H]3C\C=C/4C[C@@H](O)CC[C@]4(C)[C@H]3CC[C@]12C)C(C)C` yielded a cell viability [1] of 97.3%, a cell viability [2] of 126% and a cell viability [3] of 123%. For the same compound, the cell viability [4] was 117%, the cell viability [5] was 131% and the cell viability [6] was 124%. For the same compound, the cell viability [7] was 114%, the cell viability [8] was 107% and the cell viability [9] was 95.6%. For the same compound, the cell viability [10] was 55.5%, the cell viability [11] was 35.6% and the cell viability [12] was 103%. It also gave a cell viability [13] of 114%, a cell viability [14] of 113% and a cell viability [15] of 106%. The cell viability [16] was 108%, the cell viability [17] was 115% and the cell viability [18] was 102%. The cell viability [19] was 103%, the cell viability [20] was 96.1% and the cell viability [21] was 92.4%. For the same compound, the cell viability [22] was 22.3%, the cell viability [23] was 105% and the cell viability [24] was 120%. For the same compound, the cell viability [25] was 114%, the cell viability [26] was 107% and the cell viability [27] was 116%. For the same compound, the cell viability [28] was 107%, the cell viability [29] was 97.3% and the cell viability [30] was 102%. The cell viability [31] was 93.5%, the cell viability [32] was 72.5% and the cell viability [33] was 26.3%.

`O=C([O-])C(O)Cc1ccc(O)c(O)c1` (stereo unspecified) showed a cell viability [1] of 100%, a cell viability [2] of 91% and a cell viability [3] of 108%. It also gave a cell viability [4] of 95.5%, a cell viability [5] of 116% and a cell viability [6] of 106%. The cell viability [7] was 99.4%, the cell viability [8] was 100% and the cell viability [9] was 90.8%. The cell viability [10] was 74.9%, the cell viability [11] was 60.1% and the cell viability [12] was 91.8%. For the same compound, the cell viability [13] was 83.7%, the cell viability [14] was 87.1% and the cell viability [15] was 96.5%. It also gave a cell viability [16] of 91.2%, a cell viability [17] of 91.8% and a cell viability [18] of 84%. The cell viability [19] was 92.5%, the cell viability [20] was 87.4% and the cell viability [21] was 77.9%. The cell viability [22] was 64.3%, the cell viability [23] was 96.7% and the cell viability [24] was 102%. The cell viability [25] was 104%, the cell viability [26] was 100% and the cell viability [27] was 96.4%. It also gave a cell viability [28] of 91.4%, a cell viability [29] of 100% and a cell viability [30] of 84.4%. For the same compound, the cell viability [31] was 81.4%, the cell viability [32] was 78.5% and the cell viability [33] was 65.4%.
